{"source": "paper PMC10052035", "about": "“Virtual Screening, Structural Analysis, and Formation Thermodynamics of Carbamazepine Cocrystals” (Pharmaceutics, 2023)", "key": {"[1]": {"assay": "Solubility of cocrystals and their constituents in organic solvents (shake-flask, HPLC)", "conditions": "for solubility at 48 h: organic solvent or mixture, thermodynamic from solid; for Cp∙10^2, solubility of pure component / Ccc,3AcAmBA∙10^2, coformer concentration in equilibrium with cocrystal / Ccc,CBZ∙10^2, CBZ concentration in equilibrium with cocrystal: value is C∙10^2", "procedure": "For the [CBZ + 3AcAmBA] (1:1) cocrystal, methanol was used. For [CBZ + 4AcAmBA] (1:1), all the experiments were performed in acetonitrile. An excess of the solid was placed in an Eppendorf tube, and 2 mL of solvent was added. The resulting suspension was shaken in a ThermoMixer C (Eppendorf, Hamburg, Germany) at 800 rpm for 48 h at the specified temperature. Subsequently, the saturated solution was separated using a 0.22 μm PTEF filter, diluted, and analyzed using HPLC. The solid phases after the experiment were collected and characterized by PXRD. Each experiment was repeated three times.\nThe HPLC was performed on an LC-20 AD Shimadzu Prominence model (Shimadzu, Kyoto, Japan) equipped with a PDA detector and a Luna C-18 column (150 mm × 4.6 mm i.d., 5 μm particle size, and 100 Å pore size). The column temperature was set to 40 °C. To achieve the proper separation of the cocrystal components, different ratios of the mobile phase, consisting of acetonitrile and a 0.1% aqueous solution of trifluoroacetic acid (35:65 v/v), were used. The flow rate was 1.0 mL·min^−1, and the injection volume was 20 μL. The UV detection of carbamazepine, 2-acetamidobenzoic acid, 3-acetamidobenzoic acid, and 4-acetamidobenzoic acid was carried out at the wavelengths of 285 nm, 249 nm, 220 nm, and 266 nm, respectively."}, "[2]": {"design": "method as in doi:10.1016/j.molliq.2021.118320", "conditions": "pH 2.0, 310.2 K; value belongs to the coformer of the cocrystal named in the row; ref [103]; cited from earlier work"}, "[3]": {"type": "physicochemical", "procedure": "The saturation shake-flask method was used to measure the aqueous solubility of the CBZ cocrystals in a pH 2.0 buffer solution at the eutectic point, where drug and cocrystal are in equilibrium with the solution. The eutectic point between the cocrystal and the drug was reached by suspending 80 mg of the cocrystal and 30 mg of CBZ in 2 mL of the buffer solution. The obtained suspension was stirred continuously for 72 h at 37.0 ± 0.1 °C. After equilibration, the final pH of the solution was measured. The suspension was diluted with the mobile phase after being filtered through a […] PTEF filter. Concentrations of compounds were analyzed by HPLC. The solid phases after the experiment were characterized by PXRD.\nThe column temperature was set to 40 °C."}, "[4]": {"assay": "Cocrystal formation thermodynamics from solubility data (Kf, ΔformG, ΔformH, ΔformS)", "type": "physicochemical", "conditions": "for ΔformH: van't Hoff, 293.15-313.15 K", "source_text": "It is known that the relative stability of a cocrystal with respect to a physical mixture of the parent constituents at a given temperature can be quantitatively expressed in terms of the free-energy change, ΔformG, of the cocrystallization reaction. Analyzing the temperature dependence of the Gibbs formation energy can provide further information on the enthalpy and entropy contributions to the driving force of the process as well as help to estimate the thermodynamic transition temperature, which determines the stability domains of a cocrystal and its individual constituents. The experimental assessment of ΔformG is based on solubility data for the starting molecules and the corresponding cocrystal in the same solvent at a predetermined temperature using the equation below:(3) ΔformG=−RTlnap,Ax×ap,By/acc,Ax×acc,By=−RTlnap,Ax×ap,By/Ksp=−RTlnKf, where ap,A and ap,B represent the activities of pure A and B compounds in a saturated solution; acc,A and acc,B are the activities of the cocrystal components in a solution, in equilibrium with pure cocrystal; Ksp is the solubility product of a cocrystal; T is the temperature; x and y are the stoichiometric coefficients; and Kf is an equilibrium constant at the experimental temperature.\nUsing the van’t Hoff expression, the enthalpy of the cocrystallization process, ΔformH, may be estimated by evaluating the Kf values at various temperatures (assuming that ΔformH is a constant within the selected temperature range):(4) dlnKf/d(1/T)=−ΔformH/R\nThe entropy of cocrystal formation, ΔformS, can be estimated from (5) ΔformS=ΔformH−ΔformG/T\nEven though the activities in Equation (3) are usually approximated by the corresponding molar concentration while neglecting the activity coefficients, a more valid approximation implies that the activity coefficients for the two solute species are constant along the cocrystal solubility line and equal to the activity coefficients of the pure components in the saturated solutions in the same solvent and temperature. […] Table S5 contains the solubility values of CBZ, coformers, and the CBZ cocrystals with emodin, paeonol, nicotinamide, and glutaric acid in various organic solvents."}, "[5]": {"assay": "Preliminary solution stability (congruent/incongruent dissolution) in organic solvents, PXRD of residual phases", "type": "physicochemical", "source_text": "The most convenient way to determine the solubility product of a cocrystal is to ensure that the solution and the cocrystal are at thermodynamic equilibrium, i.e., that the cocrystal is congruently soluble in the chosen solvent. In this work, acetonitrile was primarily utilized as a medium to carry out solubility experiments. […] (1:1) and [CBZ + 3AcAmBA] […] In the case of [CBZ + 3AcAmBA] (1:1), incongruent solubility of the cocrystal was expected given the high solubility ratio of the components in acetonitrile (Table S6). This is likely to result in an asymmetric ternary phase diagram with a narrow stability region for the [CBZ + 3AcAmBA] (1:1) cocrystal. […] It is reasonable to assume that the poor solution stability of the [CBZ + 2AcAmBA] (1:1) cocrystal is not due to the large solubility difference between CBZ and 2AcAmBA but rather because of the low intrinsic thermodynamic stability of the binary solid form caused by the lack of energy gain associated with cocrystal formation, which leads to a higher solubility in all solvents considered. […] (1:1) cocrystal compared to the parent pure components (~40 °C, Figure S2), implicitly corroborate this supposition. Since no suitable solvent for solubility studies of [CBZ + 2AcAmBA] (1:1) could be found, this system was not further explored. The [CBZ + 3AcAmBA]"}, "[6]": {"conditions": "298.2K, listed as [CBZ+3AcAmBA] (1:1)"}}, "data": [{"smiles": "CC(=O)Nc1cccc(C(=O)O)c1", "note": "[Cocrystal 3AcAmBA, 3-acetamidobenzoic acid]", "values": [{"measurement": "solubility at 48 h", "setting": "[1]; acetonitrile, 20 °C", "value": "4.3 ± 1", "unit": "mM"}, {"measurement": "solubility at 48 h", "setting": "[1]; methanol, 20 °C", "value": "75 ± 0.5", "unit": "mM"}, {"measurement": "solubility at 48 h", "setting": "[1]; methanol, 25 °C", "value": "87 ± 0.5", "unit": "mM"}, {"measurement": "solubility at 48 h", "setting": "[1]; methanol, 30 °C", "value": "97 ± 0.5", "unit": "mM"}, {"measurement": "solubility at 48 h", "setting": "[1]; methanol, 35 °C", "value": "109 ± 0.8", "unit": "mM"}, {"measurement": "solubility at 48 h", "setting": "[1]; methanol, 40 °C", "value": "119.5 ± 0.6", "unit": "mM"}, {"measurement": "Cp∙10^2, solubility of pure component", "setting": "[1]; methanol, 293.15 K", "value": "7.50±0.05", "unit": "mol/l"}, {"measurement": "S0(CF), intrinsic solubility of coformer", "setting": "[2]", "value": 4.1, "unit": "mM"}]}, {"smiles": "CC(=O)Nc1ccc(C(=O)O)cc1", "note": "[Cocrystal 4AcAmBA, 4-acetamidobenzoic acid]", "values": [{"measurement": "solubility ratio Cp,CBZ/Cp,coformer", "setting": "[1]; 48 h", "value": 14.1}, {"measurement": "solubility at 48 h", "setting": "[1]; acetonitrile, 20 °C", "value": "10.1 ± 0.1", "unit": "mM"}, {"measurement": "solubility at 48 h", "setting": "[1]; acetonitrile, 25 °C", "value": "11.45 ± 0.05", "unit": "mM"}, {"measurement": "solubility at 48 h", "setting": "[1]; acetonitrile, 30 °C", "value": "12.8 ± 0.07", "unit": "mM"}, {"measurement": "solubility at 48 h", "setting": "[1]; acetonitrile, 35 °C", "value": "14.73 ± 0.07", "unit": "mM"}, {"measurement": "solubility at 48 h", "setting": "[1]; acetonitrile, 40 °C", "value": "16.6 ± 0.3", "unit": "mM"}, {"measurement": "Cp∙10^2, solubility of pure component", "setting": "[1]; acetonitrile, 293.15 K", "value": "1.010±0.010", "unit": "mol/l"}, {"measurement": "S0(CF), intrinsic solubility of coformer", "setting": "[2]", "value": 4.6, "unit": "mM"}]}, {"smiles": "CC(=O)Nc1ccccc1C(=O)O", "note": "[Cocrystal 2AcAmBA, 2-acetamidobenzoic acid]", "values": [{"measurement": "solubility ratio Cp,CBZ/Cp,coformer", "setting": "[1]; Acetonitrile, Table S6", "value": 5.7}, {"measurement": "solubility at 48 h", "setting": "[1]; acetonitrile, 20 °C", "value": "25 ± 0.8", "unit": "mM"}, {"measurement": "S0(CF), intrinsic solubility of coformer", "setting": "[2]", "value": 11.5, "unit": "mM"}]}, {"smiles": "CC(=O)Nc1cccc(C(=O)O)c1.NC(=O)N1c2ccccc2C=Cc2ccccc21", "note": "[[CBZ + 3AcAmBA] (1:1)]", "values": [{"measurement": "Scc, solubility of the cocrystal", "setting": "[3]; pH 2", "value": "(1.30 ± 0.03)·10^−3 Mol·L^−1"}, {"measurement": "[CF]eu, eutectic concentration of coformer", "setting": "[3]; pH 2.0, 310.2 K, eutectic point", "value": "(1.75 ± 0.08)·10^−3 Mol·L^−1"}, {"measurement": "[CBZ]eu, eutectic concentration of CBZ", "setting": "[3]; pH 2.0, 310.2 K, eutectic point (drug and cocrystal in equilibrium with solution)", "value": "(9.8 ± 0.2)·10^−4 Mol·L^−1"}, {"measurement": "Keu, eutectic constant", "setting": "[3]; pH 2.0, 310.2 K, Keu = [CF]eu/[CBZ]eu", "value": "1.8 ± 0.1"}, {"measurement": "T·ΔformS", "setting": "[4]; 298.2K", "value": "-0.908 ± 0.12", "unit": "kcal/mol"}, {"measurement": "lnKf", "setting": "[4]; 298.2K", "value": "1.17 ± 0.02"}, {"measurement": "ΔformG", "setting": "[4]; 298.2K", "value": "-0.696 ± 0.012", "unit": "kcal/mol"}, {"measurement": "T·ΔformS", "setting": "[4]; [6]", "value": "-0.908 ± 0.12", "unit": "kcal/mol"}, {"measurement": "ΔformG", "setting": "[4]; [6]", "value": "-0.696 ± 0.012", "unit": "kcal/mol"}, {"measurement": "ΔformH", "setting": "[4]; 298.2K", "value": "-1.6 ± 0.12", "unit": "kcal/mol"}, {"measurement": "ΔformH", "setting": "[4]; [6]", "value": "-1.6 ± 0.12", "unit": "kcal/mol"}, {"measurement": "lnKf", "setting": "[4]; methanol, 293.15 K", "value": "1.20±0.02"}, {"measurement": "∆formG", "setting": "[4]; methanol, 293.15 K", "value": "-0.7 ± 0.012", "unit": "kcal/mol"}, {"measurement": "lnKf", "setting": "[4]; methanol, 298.15 K", "value": "1.17±0.02"}, {"measurement": "∆formG", "setting": "[4]; methanol, 298.15 K", "value": "-0.696 ± 0.012", "unit": "kcal/mol"}, {"measurement": "lnKf", "setting": "[4]; methanol, 303.15 K", "value": "1.12±0.02"}, {"measurement": "∆formG", "setting": "[4]; methanol, 303.15 K", "value": "-0.676 ± 0.012", "unit": "kcal/mol"}, {"measurement": "lnKf", "setting": "[4]; methanol, 308.15 K", "value": "1.06±0.015"}, {"measurement": "∆formG", "setting": "[4]; methanol, 308.15 K", "value": "-0.65 ± 0.0096", "unit": "kcal/mol"}, {"measurement": "lnKf", "setting": "[4]; methanol, 313.15 K", "value": "1.04±0.02"}, {"measurement": "∆formG", "setting": "[4]; methanol, 313.15 K", "value": "-0.643 ± 0.0072", "unit": "kcal/mol"}, {"measurement": "dissolution behaviour / solution stability", "setting": "[5]; acetonitrile", "value": "dissolved incongruently"}, {"measurement": "dissolution behaviour / solution stability", "setting": "[5]; methanol", "value": "dissolve congruently"}, {"measurement": "Ccc,3AcAmBA∙10^2, coformer concentration in equilibrium with cocrystal", "setting": "[1]; methanol, 293.15 K", "value": "7.0±0.1", "unit": "mol/l"}, {"measurement": "Ccc,CBZ∙10^2, CBZ concentration in equilibrium with cocrystal", "setting": "[1]; methanol, 293.15 K", "value": "7.00±0.06", "unit": "mol/l"}, {"measurement": "Ccc,3AcAmBA∙10^2, coformer concentration in equilibrium with cocrystal", "setting": "[1]; methanol, 298.15 K", "value": "8.1±0.1", "unit": "mol/l"}, {"measurement": "Ccc,CBZ∙10^2, CBZ concentration in equilibrium with cocrystal", "setting": "[1]; methanol, 298.15 K", "value": "8.20±0.10", "unit": "mol/l"}, {"measurement": "Ccc,3AcAmBA∙10^2, coformer concentration in equilibrium with cocrystal", "setting": "[1]; methanol, 303.15 K", "value": "9.5±0.1", "unit": "mol/l"}, {"measurement": "Ccc,CBZ∙10^2, CBZ concentration in equilibrium with cocrystal", "setting": "[1]; methanol, 303.15 K", "value": "9.50±0.08", "unit": "mol/l"}, {"measurement": "Ccc,3AcAmBA∙10^2, coformer concentration in equilibrium with cocrystal", "setting": "[1]; methanol, 308.15 K", "value": "11.1±0.06", "unit": "mol/l"}, {"measurement": "Ccc,CBZ∙10^2, CBZ concentration in equilibrium with cocrystal", "setting": "[1]; methanol, 308.15 K", "value": "11.00±0.08", "unit": "mol/l"}, {"measurement": "Ccc,3AcAmBA∙10^2, coformer concentration in equilibrium with cocrystal", "setting": "[1]; methanol, 313.15 K", "value": "12.5±0.07", "unit": "mol/l"}, {"measurement": "Ccc,CBZ∙10^2, CBZ concentration in equilibrium with cocrystal", "setting": "[1]; methanol, 313.15 K", "value": "12.10±0.08", "unit": "mol/l"}]}]}
